{"source": "patent EP0292023A2", "about": "“Pyrimidine derivatives” (F. HOFFMANN-LA ROCHE AG, priority 1987, dated 1988)", "key": {"HTLV III (Stamm RF)": {"system": "HTLV III (Stamm RF)", "assay": "Activity against HIV (p24 antigen capture assay in infected C8166 cells)", "format": "cell-based", "conditions": "concentration giving 50% protection; C8166 cells infected with 10-fold TCD₅₀, 72 h incubation at 37°C, viral protein 24 antigen in supernatant; read-out: IC₅₀", "protocol": "(B) Wirksamkeit gegen HIV\nIn diesem Versuch verwendet man HTLV III (Stamm RF), gezüchtet in C8166-Zellen (eine menschliche CD4⁺ T-Lymphoblastenlinie), RPM1 1640 Medium mit Bicarbonatpuffer, Antibiotika und 10%igem fötalem Rinderserum. Eine Zellensuspen sion wird mit der 10-fachen TCD₅₀ des Virus infiziert. Man lässt 90 Minuten bei 37°C adsorbieren. Die Zellen werden mit dem Medium gewaschen. Der Versuch wird in 6 ml Gewebekulturröhren durchgeführt. Jedes Rohr enthalt 2 x 10⁵ infizierte Zellen in 1,5 ml Medium. Es werden 15 µl einer Lösung der Substanz in wässrigem Medium oder in DMSO zugesetzt. Nach 72 Stunden Inkubation bei 37°C in einer feuchten 5% CO₂ enthaltenden Atmosphäre werden die Kulturen zentrifugiert. Ein aliquoter Teil des Ueberstandes wird solubilisiert und einem Antigenabfangversuch unterworfen unter Verwendung eines primären Antiserums mit besonderer Reaktivität gegen virales Protein 24 und eines Meerrettich-Peroxidase-Detektionssystems. Die Farbenerzeugung wird spektrophotometrisch gemessen und in Abhängigkeit der Konzentration der Testsubstanz dargestellt. Die einen 50%igen Schutz erzeugende Konzentration (IC₅₀) wird ermittelt. In diesem Test hat DFAC ein IC₅₀ von 1 µM."}, "[1]": {"system": "Schaf-Lentiviren des Stammes WLC-1", "assay": "Activity against sheep lentivirus (protection from cytopathic effect in SCP cells)", "format": "cell-based", "conditions": "minimal concentration giving 100% protection from cytopathic effect, 12 days incubation at 37°C, crystal violet staining, visual reading", "text": "(A) Aktivität gegen Schaf-Lentiviren\nIn diesem Versuch verwendet man Schaf-Lentiviren des Stammes WLC-1, der im Plexus chorioideus (SCP) des Schafs mit 10% fötalem Rinderserum enthaltenden Medium gezüchtet wurde. Die Verbindungen werden in 96 Vertiefungen enthaltenden Platten getestet. Jede Vertiefung enthält 10⁴SCP-Zellen, die 48 Stunden inkubiert wurden. Die Testverbindungen werden, gelöst in Dimethylsulfoxid (DMSO), bis zu einer Endkonzentration von 1% DMSO hinzugefügt, zusammen mit einem Virus-Inokulum, das innert 12 Tagen einen 100%igen cytopathischen Effekt bewirkt. Nach 12-tägiger Inkubation bei 37°C werden die Platten mit Kristallviolett angefärbt. Effekt in den die Testverbindungen enthaltenden Vertiefungen wird visuell durch Vergleich mit lediglich den Virus enthaltenden Vertiefungen und nicht-infizierten Vertiefungen ermittelt. Die Wirksamkeit (MPC) ist die minimale Konzentration der Testverbindung, die einen 100%igen Schutz bewirkt. In diesem Versuch hat DFAC einen MPC von 2,5 µM."}}}
{"compound": "Nc1ccn([C@@H]2O[C@H](CO)C[C@@H]2F)c(=O)n1", "note": "[DFAC, 1-(2′,3′-Dideoxy-2′-fluor-b-D-arabinofuranosyl)cytosin]", "values": [{"measurement": "IC50", "setting": "HTLV III (Stamm RF)", "value": 1000, "unit": "nM"}, {"measurement": "MPC", "setting": "[1]", "value": "2,5 µM"}]}
